How the values were obtained:
[1] = system: back skin of SKH-1 hairless mouse; assay: Protection of skin tissues from UVB irradiation in hairless mice; type: in vivo
Method: 5-6 week old female hairless mice (SKH-hr 1) were raised for 14 days at 24±2° C. with 50±10% relative humidity and 12 hour day/night cycle. 30-60 minutes before the experiment, a sample was hyperdermically injected on 5 spots of the mice and the backs of the mice were irradiated by UVB. 5 mice per each group were put in a cage (20×15×5 cm) and UVB irradiation was performed using a UV lamp (HP-15M, 280-400 nm, max. 312 nm; Atto Co., Japan) at 15 cm distance by 15 kJ/m^2. After the completion of UV irradiation for 24 hours, back skin was cut and stored at −70° C. until peroxidation was measured.
UVB irradiation causes serious lipid peroxidation in skin tissues, so measurement of the peroxided lipid content might lead to the measurement of skin damages. Particularly, UVB was irradiated on the back skin of SKH-1 hairless mouse. 48 hours later, the back skin tissues were cut to measure lipid peroxidation by thiobarbituric acid (TBA) method. The back skin of the mouse was put in a 10×50 mM K-P buffer solution for homogenation.
Hydrogen peroxidation was also investigated. The frozen back skin section was put in 0.1 M Tris-HCl buffer solution (pH 7.5) containing 1 mg/ml of glucose and 1 mg/ml diaminobenzidine (DAB), which was cultured at 37° C. for 5-6 hours. After being washed with distilled water, the solution was stained with 2% methyl green for 60 minutes. Nucleus stained blue and DAB peroxidase (brown) were observed under a microscope.

[2] = system: HEK-N/F cells; assay: Cell protection from UV irradiation (DNA damage, ethidium homodimer fluorescence); type: cell-based, human; conditions: 35 mJ/cm^2 UVB, Et2 fluorescence (DNA damage)
Method: UV irradiation induces DNA damage and DNA-protein connection by increasing active oxygen in cells. When HEK-N/F cells were irradiated by 35 mJ/cm^2 of UVB, DNA chains in nucleus were cut. After uniting the broken chains to ethidium homodimer (Et2), a DNA chain intercalating fluorescent dye, extent of fluorescence was measured to quantify the amount of DNA damage. Particularly, HEK-N/F cells were cultured on serum-free KGM medium (Clonetics), which were inoculated into wells of a 24-well plate by 0.5−4×10^4 cells/2 cm^2. Then, the cells were cultured for 18 hours, after which a sample was treated thereto for 2 hours. […] The cells exposed on UV were further cultured for 1-7 hours, and then, […] ethidium homodimer (Et2, Millipore) was added. 30 minutes later, fluorescence was measured with Millipore microplate fluorometer Cytofluor 2350 (excitation: 485 nm, emission: 645 nm).

[3] = system: HEK-N/F cells; assay: Protection of cells from oxidative damage induced by t-butylhydroperoxide; type: cell-based, human; conditions: 1.5 mM t-butylhydroperoxide 3 hours
Method: t-butylhydroperoxide is metabolized into a free radical intermediate as it comes in a cell, so that it causes lipid peroxidation, resulting in cell damage. This phenomenon is similar to that caused by oxidataive stress accumulated in cells and tissues. […] HEK-N/F, an epidermal cell line of a newborn baby, was treated with 1.5 mM of t-butylhydroxyperoxide for 3 hours.

[4] = system: HEK-N/F cells; assay: Prolongation of life span of a cell; type: cell-based, human; conditions: 3 μg/ml during culture
Method: HEK-N/F cells were obtained from foreskin of a newborn baby after its fibroblasts, another major component of skin, were treated with uridine bromide. Then, the cells were cultured in DMEM medium supplemented with 10 FBS. HEK-N/F cells were diluted consecutively at the ratio of 1:4 during the culture. Before being treated with samples, the cells were grown up to 3 PDL (population doubling level). During the culture, each sample was administered by […]. Medium was replaced every three days by fresh medium supplemented with a culture solution containing the equal concentration of the sample.

[5] = system: HEK-N/F cells; assay: Telomere length / maximum PDL (Southern blot of TRFs); type: cell-based, human
Method: In the above Example 8, an extract of […] chinensis and active ingredients separated from the same were confirmed to have an effect of prolongation of life span of a cell. Thus, in this example, relation between the effect of prolongation of life span and the length of a telomere was investigated. Particularly, genomic DNA was extracted from each cell of different ages by using a nucleic acid extraction kit (Isoquick Nucleic Acid Extraction kit, ORCA Research Inc.), which was stored at 4° C. after being dissolved in Tris-EDTA solution (10 mM Tris-HCl, 1 mM EDTA, pH 8.0). 2 μl of 10×H buffer solution (TaKaRa), 2 μl of the extracted genomic DNA solution and distilled water were all mixed in a 1.5 ml tube, making final volume 19 μl. Then, 1 μl at of restriction enzyme […]) was added thereto. […] Then, the gel was immersed in 0.25 N HCl, followed by shaking for 15 minutes. The gel was washed twice with distilled water. This gel was dipped into denaturing solution (0.2 N NaOH, 0.6 M NaCl), followed by shaking for 25 minutes at room temperature. And then, the gel was washed three times with distilled water. On a blotting device filled with 6×SSC, nitrocellulose membrane (Optitran BA-S 85, Schleicher & Schuel), 3 mm filter paper, paper towel, glass plate and weight (2 kg) were loaded in that order, followed by blotting overnight. After the blotting was finished, membrane filter was soaked in 3×SSC, and then water was discarded smoothly. The positions of the wells on the membrane were marked. The membrane was placed between filter papers, followed by baking at 80° C. for overnight. […] After being dried, the membrane was covered with wrap and set in a cassette on which X-ray film (Scientific Imaging Film, Kodak) and intensifying screen were attached. Autoradiography was performed at -80° C. for overnight. Based on the developed film and the location of the membrane, the positions of the wells were marked by a magic pen. The density peak of TRFs was detected by a laser densitometer (UltroScan XL, Pharmacia) and its mobility was calculated.

`Oc1cc(O)cc(/C=C/c2ccc(O)c(O)c2)c1` [Chemical Formula 5, piceatannol] was tested, and the “TBARS (nmol/mg protein)” value ([1]; treating amount 10 mg/kg + UVB irradiation) was 0.16 ± 0.08 nmol/mg protein, the “TBARS (nmol/mg protein)” value ([1]; treating amount 30 mg/kg + UVB irradiation) was 0.07 ± 0.03 nmol/mg protein and the “fluorescence lower than that of a control” value [2] was 66.7%. The “Cell survival rate (%)” value [3] was 84.7±6.9%, the “TBARS (pmol/mg protein)” value ([3]; compound 50.0 µg/ml) was 520.2 ± 60.7 pmol/mg protein and the “average life span of a cell” value [4] was 76 days. The “life span, times as long as that of a control” value [4] was 2.1 times, the “telomere shortening speed delayed, comparing to control” value [5] was 2.1 times and the “maximum PDL” value ([5]; control 14.1) was 29.9.
